The values that follow are results of earlier work, collected in patent publication US10813957B2, “Engineered oncolytic viruses containing hyper-binding sites to sequester and suppress activity of oncogenic transcription factors as a novel treatment for human cancer” (priority 2016, dated 2020).

The conditions of the series: background statement.

As to `NC(=O)OC[C@H]1c2c(O)cc(C=O)cc2N2CC3N[C@@H]3[C@]1(O)O2` (stereo partly shown) [FR900482], the toxicity in humans result was “high toxicity”.
